Key:
[1] = test system: KRAS and phosphorylated ERK in NCI-H358 cells; settings: cited from earlier work
H358 3D spheroids = experiment: H358 spheroid size/area; assay type: cell-based; settings: 0.1 μM AMG 510
[2] = test system: EVs secreted by H358 cells; experiment: Nanoparticle Tracking Analysis of EV size, ExoTIC isolation; assay type: cell-based; settings: ExoTIC-isolated EVs, H358, AMG 510 treatment
Text: To characterize exRNA profiles, EVs were isolated using two orthogonal approaches: affinity column extraction (ExoRNeasy) and size-based filtration (Exosome Total Isolation Chip: ExoTIC). Each EV isolation method captured distinct EV populations as determined by Nanoparticle Tracking Analysis (NTA) (FIGS. 5A and 5B) 18.19. The ExoTIC platform captured a low yield of EVs that fell within a size range matching that of exosomes (FIG. 5A).
The exRNA landscape varies based on EV subpopulations isolated by different approaches. We sought to investigate two orthogonal approaches to EV isolation, which yielded distinct EV populations with variable exRNA content. This highlights the importance of upstream EV isolation procedures before the exRNA sequencing pipeline. […] The significant shift in the maxima of the EV size distribution corresponding to AMG 510 treatment was accompanied by local maxima around particles of even smaller dimensions. Further EV size-fractionated exRNA sequencing will be necessary to determine the contribution of the different EV subpopulations to our exRNA data.
RNA Isolation & Purification. Total bulk RNA was isolated from H358 cells using Quick-RNA Mini-Prep kit (Zymogen). All RNA was quantified via NanoDrop-8000 Spectrophotometer. […] Extracted exosomal RNA were quantified via Qubit RNA HS assay kit (Thermo). […]

Row | Structure (SMILES) | time at which abundance of KRAS and pERK begin to recover [1] | decrease of 3D spheroid size with respect to control (H358 3D spheroids) | EV size profile after treatment [2]
1 | C=CC(=O)N1CCN(c2ncnc3c(F)c(-c4c(O)cccc4F)c(Cl)cc23)CC1 [ARS1620] | 24 hours |  | 
2 | C=CC(=O)N1CCN(c2nc(=O)n(-c3c(C)ccnc3C(C)C)c3nc(-c4c(O)cccc4F)c(F)cc23)[C@@H](C)C1 [AMG 510, Sotorasib] |  | 20% | around 150 nm

Source: US20250011876A1, “EXTRACELLULAR RNA SIGNATURES OF MUTANT KRAS(G12C) CANCERS” (The Regents of the University of California, priority 2021, published 2025)
